Data reported in patent EP0337503B1, “Fumigation methods and compositions” (Entek Corporation, priority 1983, dated 1984).

Experiments:
[1] = tested on: root-knot nematode larvae (Meloidogyne incognita); assay: Greenhouse nematocide experiment with tomato plants, soil drench, root gall count; assay type: in vivo; settings: 30 days; for Gall Counts, replicate 3: control 1; for Gall Counts, Mean: control 4.0; for Gall Counts, replicate 2: control 7; for Gall Counts, replicate 1: control 4
Description: In the experiment, thirty containers are used, each containing about 500 grams of sterilized sandy loam soil. Each container contains one tomato plant. Each container is injected with four 5-milliliter portions of extract from nematode-infested pepper roots, one inch below the soil surface, producing an initial population of 2000 root-knot nematode larvae (Meloidogyne incognita) per container.
Ten treatments are replicated three times, each treatment consisting of drenching the soil with a solution containing the fumigant to provide the dosage of CS2 given in the following table. The solutions are diluted with sufficient water to saturate the soil. The treatments include calcium tetrathiocarbonate, stabilized ammonium tetrathiocarbonate, and carbon disulfide at three levels, plus an untreated control. After drenching, each container is allowed to stand at ambient conditions. The plants are harvested after 30 days of growth, and soil is removed from the roots by a gentle washing with water. By use of a magnifying glass, the number of root galls is counted on each plant.
Results are summarized below, wherein the "Application" represents milligrams of treatment per kilogram of soil, calculated as the thiocarbonate salt and the equivalent carbon disulfide. Gall counts are mean values from the three replicates.

[2] = Effect of pH on production of CS2 from thiocarbonates in citrate-phosphate buffers, gas chromatography of air; assay type: physicochemical
Description: Pure carbon disulfide is also injected, for comparison. A syringe is used to periodically sample air in the bottle, and the air is analyzed by gas chromatography.

[3] = Decomposition in sandy loam soil at different moisture, CS2 in air space by gas chromatography; assay type: physicochemical; settings: hours to maximum CS2 concentration in the air space
Description: A sandy loam soil is placed in 1-liter glass bottles, fitted with stoppers having fluorocarbon liners and silicone rubber septa, to give a soil depth of about 4 cm. […] Thiocarbonate solution or carbon disulfide is injected near the bottom of the soil layer, the bottles are promptly sealed, and the air space in the bottles is sampled at intervals with a syringe, for gas chromatographic analysis of CS2. Results are summarized below, wherein degradation time is the number of hours required to achieve the maximum CS2 concentration in the air space.

nematode larvae = assay: In-vitro nematocidal test: larvae treated in aqueous suspension, injected into root zone of tomato plants, gall count; assay type: in vivo, Meloidogyne incognita; settings: for Gall Count, replicate 2: control 88; for Gall Count, Mean: control 89; for Gall Count, replicate 1: control 90
Description: The procedure of Example 2 is repeated except that potassium tetrathiocarbonate is substituted for stabilized ammonium tetrathiocarbonate and an in-vitro nematocidal test is used. In the in-vitro test, the nematode larvae are treated in aqueous suspension for 1 hour at the concentrations of fumigant given in the following table, washed twice with water, and injected into the active root zone of the tomato plants. After thirty days the roots are harvested, examined for galling, giving the results summarized below.

[4] = Rate of carbon disulfide loss from solutions, nitrogen bubbling, mass spectrometer; assay type: physicochemical; settings: undiluted: Prep. 1 100%; pure carbon disulfide for comparison
Description: The rate at which carbon disulfide is lost from diluted ammonium thiocarbonate compositions is determined by bubbling nitrogen through the solutions, and measuring the carbon disulfide content of the gas which leaves the solution, using a mass spectrometer.
In the determination, the solution, corresponding to that of Preparation 1 (containing 14.1 percent by weight carbon disulfide), is compared to pure carbon disulfide, and to serial dilutions of the Preparation 1 solution with water, which prepared 10, 1 and 0.1 volume percent solutions of the original composition.
Results are as tabulated, wherein k is the calculated first order rate constant for loss of carbon disulfide, and t is the solution half-life.

[5] = highest application: 638/89 ppm ((NH4)2CS4·(NH4)2S), 730/91 (CaCS4), 97 ppm (CS2)
[6] = lowest application: 213/30 ppm ((NH4)2CS4·(NH4)2S), 245/31 (CaCS4), 32 ppm (CS2)
[7] = middle application: 425/60 ppm ((NH4)2CS4·(NH4)2S), 490/61 (CaCS4), 65 ppm (CS2)
[8] = 10 ppm CS2, larvae treated 1 hour
[9] = 20 ppm CS2, larvae treated 1 hour

## S=C=S [CS2, carbon disulfide, reference compound]
[1]; [5]
  Gall Counts, replicate 3: 9
  Gall Counts, Mean: 20.0
  Gall Counts, replicate 2: 24
[1]; highest application: 638 ppm salt/89 ppm Eq. CS2 ((NH4)2CS4·(NH4)2S), 730/91 (CaCS4), 97 ppm (CS2)
  Gall Counts, replicate 1: 27
[1]; [6]
  Gall Counts, replicate 3: 12
  Gall Counts, Mean: 22.0
  Gall Counts, replicate 2: 23
[1]; lowest application: 213 ppm salt/30 ppm Eq. CS2 ((NH4)2CS4·(NH4)2S), 245/31 (CaCS4), 32 ppm (CS2)
  Gall Counts, replicate 1: 31
[1]; [7]
  Gall Counts, replicate 3: 33
  Gall Counts, Mean: 26.7
  Gall Counts, replicate 2: 19
[1]; middle application: 425 ppm salt/60 ppm Eq. CS2 ((NH4)2CS4·(NH4)2S), 490/61 (CaCS4), 65 ppm (CS2)
  Gall Counts, replicate 1: 28
[2]; pH 5.2, 125 milligrams per liter of thiocarbonate ion
  Half-life (minutes) for production of carbon disulfide: 1 min
[2]; pH 6.0, 125 milligrams per liter of thiocarbonate ion
  Half-life (minutes) for production of carbon disulfide: 1 min
[2]; pH 7.0, 125 milligrams per liter of thiocarbonate ion
  Half-life (minutes) for production of carbon disulfide: 1 min
[2]; pH 8.0, 125 milligrams per liter of thiocarbonate ion, CaCS4 values above pH 7 called unreliable
  Half-life (minutes) for production of carbon disulfide: 1 min
[3]; Soil Moisture 0 % of Saturation
  Degradation Time: 3.5 h
[3]; Soil Moisture 50 % of Saturation
  Degradation Time: 3.5 h
[3]; Soil Moisture 100 % of Saturation
  Degradation Time: 3.5 h
Nematode larvae; [8]
  Gall Count, replicate 2: 149
  Gall Count, Mean: 106.5
  Gall Count, replicate 1: 64
Nematode larvae; [9]
  Gall Count, replicate 2: 73
  Gall Count, Mean: 51.0
  Gall Count, replicate 1: 29
[4]
  k, calculated first order rate constant for loss of carbon disulfide: 2.0 (1)/(hour)
